Assay results taken from BindingDB's records for doi:10.1021/acs.jmedchem.9b02038 (China Pharmaceutical University, 2020).
pIC50: −log10 of the molar value.

Legend:
[1] = Inhibition of Vps34 in human MCF7-LC3 cells assessed as starvation-induced autophagy
[2] = Inhibition of Vps34 in human MCF7-LC3 cells assessed as rapamycin-induced autophagy

- pIC50 [1]: 7.05
- pIC50 [2]: 7.40
Structure (SMILES): Cc1cc(Nc2cc(Cl)nc(Oc3ccc([N+](=O)[O-])cc3)n2)n[nH]1
